How the values were obtained:
[1] = tested on: L5178Y mouse T-cell lymphoma cells; test: MTT cytotoxicity assay (24 h, 1 × 10^4 cells); format: cell-based; details: 24 h MTT, n = 3, read-out: Cytotoxicity (IC50 ± SD)
Description: (§1) To assess the compounds’ effect on cell growth and viability, we used two different experimental setups of MTT assay. This allowed a comparative evaluation of results obtained from a short-term (24 h) treatment of a relatively higher number (10,000) of cells and those from a long-term (72 h) treatment of a lower cell number (6000), which makes it possible to gain some insight into the cytotoxic vs. cytostatic properties of the compounds. Even though MTT assay is an endpoint detection method, i.e., it provides a single readout of viable cells at the end of the experiment, such a comparison offers a reliable tool to identify antiproliferative activity of compounds that are not cytotoxic.
(§2) L5178Y mouse T-cell lymphoma cells (ECACC Cat. No. 87111908) were obtained from FDA, Silver Spring, MD, USA. These were transfected with pHa MDR1/A retrovirus as described previously. ABCB1-expressing L5178YMDR cells were selected by culturing the infected cells with colchicine. The cell lines were cultured in McCoy’s 5A medium supplemented with 10% heat inactivated horse serum, 2 mM L-glutamine, and penicillin–streptomycin mixture.
(§3) MTT assay was performed in 96-well flat-bottomed microtiter plates as described before. Briefly, a 10 mM concentration stock solution in DMSO was prepared for each compound. These were diluted in 100 μL of McCoy’s 5A medium. Subsequently, 1 × 10^4 (cytotoxicity assay) or 6 × 10^3 (antiproliferative assay) T-cell mouse lymphoma cells in 100 μL of medium were added to each well, except for the medium control wells.
(§4) The culture plates were further incubated at 37 °C for 24 h (cytotoxicity assay) or 72 h (antiproliferative assay); at the end of the incubation period, 20 μL of MTT solution (from a 5 mg/mL stock) was added to each well. After incubation at 37 °C for 4 h, 100 μL of SDS solution (10% in 0.01 M HCI) was added to each well and the plates were further incubated at 37 °C overnight. The cell growth was determined by measuring the optical density at 540 nm (ref. 630 nm) with a Multiscan EX ELISA reader (Thermo Labsystems, Cheshire, WA, USA). IC50 values were calculated by variable slope nonlinear regression using the log(inhibitor) vs. normalized response of GraphPad Prism 5.01 (GraphPad Software Inc., San Diego, CA, USA).

[2] = tested on: L5178YMDR cells (ABCB1-expressing); test: MTT cytotoxicity assay (24 h, 1 × 10^4 cells); format: cell-based; details: Mus musculus, 24 h MTT, n = 3, read-out: Cytotoxicity (IC50 ± SD)
Description: as §1, §2, §3, §4

[3] = MTT cytotoxicity assay (24 h); format: cell-based; details: human, MRC-5 human embryonal lung fibroblasts; MRC-5, 24 h MTT, n = 3; read-out: Cytotoxicity (IC50 ± SD)
Description: as §1
(§5) MRC-5 human embryonal lung fibroblasts (CCL-171, ATCC) were acquired from Sigma-Aldrich (Merck, KGaA, Darmstadt, Germany), and were cultured in EMEM medium containing 4.5 g/L glucose and supplemented with a non-essential amino acid mixture, a selection of vitamins, and 10% of FBS.
(§6) The adherent human fibroblast cells were seeded in 100 μL of EMEM medium overnight before each assay. Two-fold serial dilutions of the compounds (0.19–100 µM) were prepared in separate plates, then transferred to the plates containing the adherent cell lines.
as §4

[4] = tested on: L5178Y mouse T-cell lymphoma cells; test: MTT antiproliferative assay (72 h, 6 × 10^3 cells); format: cell-based; details: Mus musculus; L5178Y, 72 h MTT, n = 3; read-out: Antiproliferative Effect (IC50 ± SD)
Description: as §1, §2, §3, §4

[5] = tested on: L5178YMDR cells (ABCB1-expressing); test: MTT antiproliferative assay (72 h, 6 × 10^3 cells); format: cell-based; details: Mus musculus, 72 h MTT, n = 3, read-out: Antiproliferative Effect (IC50 ± SD)
Description: as §1, §2, §3, §4

[6] = tested on: MRC-5 human embryonal lung fibroblasts; test: MTT antiproliferative assay (72 h); format: cell-based; details: Homo sapiens, MRC5; MRC-5, 72 h MTT, n = 3; read-out: Antiproliferative Effect (IC50 ± SD)
Description: as §1, §5, §6, §4

ABCB1 = biological target: T1, ABCB1 (Homo sapiens, UniProt P08183); test: ABCB1 inhibition assay (rhodamine 123 accumulation, flow cytometry); format: cell-based; details: human, probe rhodamine 123 (5.2 µM), L5178YMDR, rhodamine 123 accumulation, n = 1
T1 construct: expressed in transfected cells; host or cells: L5178Y mouse T-cell lymphoma cells transfected with pHa MDR1/A retrovirus, selected with colchicine (L5178YMDR)
Description: ABCB1 inhibition was determined by the intracellular accumulation of rhodamin 123 as reported before. Briefly, 2 × 10^6 cells/mL of L5178Y and L5178YMDR cell lines were re-suspended in serum-free McCoy’s 5A medium and distributed in 0.5 mL aliquots into Eppendorf centrifuge tubes. The compounds were added at a final concentration of 2 or 20 μM and the samples were incubated for 10 min at room temperature. Tariquidar was used as positive control and DMSO as negative control; for the latter, no activity was observed. Subsequently, 10 μL (5.2 μM final concentration) of the ABCB1 substrate fluorescent dye rhodamine 123 was added and the cells were incubated further for 20 min at 37 °C, washed twice and re-suspended in 1 mL PBS for analysis. Fluorescence of the cell population was measured with a PartecCyFlow® flow cytometer (Partec, Münster, Germany). Mean fluorescence intensity percentage was calculated for the treated vs. untreated L5178YMDR cells. Inhibition percentage for the treated cells was calculated from the corresponding values of the untreated L5178Y and L5178YMDR cells, representing 100% and 0% inhibition, respectively.

L5178YMDR cells = test: Combination assay with doxorubicin (checkerboard microplate method, MTT); format: cell-based, mouse; design: Dm (antilog of the x-intercept of the median-effect plot): unit not given here; details: for CIavg (weighted average CI): (CI50 + 2CI75 + 3CI90)/6
Description: Compounds 7, 10, 11, 13, and 14 had sufficient individual antiproliferative properties for their assessment of chemo-sensitizing activity. This was carried out as an antiproliferative assay on L5178YMDR cells in combination with doxorubicin, arranged according to the checkerboard microplate method.
The checkerboard microplate method was used to evaluate the compounds’ interaction with doxorubicin, as described before. Briefly, doxorubicin (2 mg/mL, Teva Pharmaceuticals, Budapest, Hungary) was serially diluted in the horizontal direction (100 µL per well), and the ecdysteroid was subsequently diluted in the vertical direction (50 µL per well). L5178YMDR cells were re-suspended in culture medium and added to each test well in 50 µL to contain 1 × 10^4 cells per well, and 50 µL of medium was added to the medium control wells. The plates were incubated for 72 h at 37 °C in a CO2 incubator and, at the end of the incubation period, the cell growth was determined by MTT assay as described above. Cell viability data were analyzed by the Calcusyn software using the Chou method, and drug interactions were expressed as combination index (CI) values, in which 0 < CI < 1, CI = 1, and CI > 1 refer to synergism, additivity, and antagonism, respectively.

[7] = drug ratio 23.2:1, with doxorubicin
[8] = drug ratio 46.4:1, with doxorubicin
[9] = drug ratio 92.8:1, with doxorubicin
[10] = drug ratio 185.6:1, with doxorubicin
[11] = drug ratio 371.2:1, with doxorubicin

Structure (SMILES)	IC50 [1] [µM]	IC50 [2] [µM]	IC50 at 24 h [3] [µM]	IC50 [4] [µM]	IC50 [5] [µM]	IC50 [6] [µM]	inhibition at 20 min, 2 µM (ABCB1) [%]	inhibition at 20 min, 20 µM (ABCB1) [%]	CI at ED75 (L5178YMDR cells; [7])	CI at ED90 (L5178YMDR cells; [7])	Dm (antilog of the x-intercept of the median-effect plot) (L5178YMDR cells; [7])	CIavg (weighted average CI) (L5178YMDR cells; [7])	CI at ED75 (L5178YMDR cells; [8])	CI at ED90 (L5178YMDR cells; [8])	Dm (antilog of the x-intercept of the median-effect plot) (L5178YMDR cells; [8])	CIavg (weighted average CI) (L5178YMDR cells; [8])	CI at ED75 (L5178YMDR cells; [9])	CI at ED90 (L5178YMDR cells; [9])	Dm (antilog of the x-intercept of the median-effect plot) (L5178YMDR cells; [9])	CIavg (weighted average CI) (L5178YMDR cells; [9])	other results
CC(=O)[C@H]1CC=C2C3=CC(=O)[C@@H]4C[C@H]5OC(C)(C)O[C@H]5C[C@]4(C)C3=CC[C@@]21C [Compound 6]	91.1 ± 6.8	> 100	> 100	31.2 ± 3.9	54.1 ± 2.3	> 100	-0.38	0.13													
CC(=O)[C@H]1CC[C@@]2(O)C3=CC(=O)[C@@H]4C[C@H]5OC(C)(C)O[C@H]5C[C@]4(C)C3=CC[C@]12C [Compound 5]	> 100	> 100	> 100	56.5 ± 6	80.2 ± 2.1	20.9 ± 3.6	0.2	-0.41													
CC(=O)O[C@H]1C[C@@]2(C)C(=C(O)C(=O)C3=C2CC[C@@]2(C)C3=CC[C@@H]2[C@@]2(C)OC(C)(C)O[C@@H]2CCC(C)(C)O)C[C@H]1O [Compound 16, calonysterone 2-acetate 20,22-acetonide]	63 ± 4.4	78.7 ± 6.7	> 100	50.3 ± 0.2	40 ± 3.4	67.2 ± 14.6	0.71	15.7													
CC(=O)[C@H]1CC[C@@]2(F)C3=CC(=O)[C@@H]4C[C@H]5OC(C)(C)O[C@H]5C[C@]4(C)[C@H]3CC[C@]12C [Compound 11]	91.9 ± 9.3	81.9 ± 2.9	> 100	31.8 ± 2.1	55.7 ± 5.9	10 ± 2.1	-0.57	-0.51	0.56	0.41	7.00	0.52	0.55	0.39	11.66	0.51	0.53	0.38	15.83	0.49	CI at ED75 (L5178YMDR cells; [10]): 0.66; CI at ED90 (L5178YMDR cells; [10]): 0.48; Dm (antilog of the x-intercept of the median-effect plot) (L5178YMDR cells; [10]): 24.06; CIavg (weighted average CI) (L5178YMDR cells; [10]): 0.61; CI at ED75 (L5178YMDR cells; [11]): 0.72; CI at ED90 (L5178YMDR cells; [11]): 0.55; Dm (antilog of the x-intercept of the median-effect plot) (L5178YMDR cells; [11]): 28.63; CIavg (weighted average CI) (L5178YMDR cells; [11]): 0.67
CC(=O)[C@H]1CC=C2C3=CC(=O)[C@@H]4C[C@H]5OC(C)(C)O[C@H]5C[C@]4(C)[C@H]3CC[C@@]21C [Compound 10]	72.9 ± 5.6	83 ± 5	> 100	27.7 ± 0.6	42.3 ± 1.5	> 100	-0.38	-0.16	0.50	0.33	6.50	0.46	0.51	0.30	10.99	0.46	0.55	0.35	14.02	0.50	CI at ED75 (L5178YMDR cells; [10]): 0.61; CI at ED90 (L5178YMDR cells; [10]): 0.36; Dm (antilog of the x-intercept of the median-effect plot) (L5178YMDR cells; [10]): 19.47; CIavg (weighted average CI) (L5178YMDR cells; [10]): 0.55

— article PMC8998355, “Diversity-Oriented Synthesis Catalyzed by Diethylaminosulfur-Trifluoride—Preparation of New Antitumor Ecdysteroid Derivatives” (International Journal of Molecular Sciences, 2022)
